Assay results as given in patent US11959083B2, “Immunosuppression-reverting oligonucleotides inhibiting the expression of CD39” (Secarna Pharmaceuticals GmbH & Co. KG, priority 2016, dated 2024).
l = locked nucleic acid (LNA); d = 2'-deoxy (DNA)

Tests used:
hCD39 mRNA [1] = test: hCD39 mRNA knockdown efficacy screen in HDLM-2 cells (single dose, gymnotic delivery, QuantiGene Singleplex); assay type: cell-based, human; design: key to Relative hCD39 mRNA expression (compared to non-treated cells): *: values are below detection limit; conditions: 10 μM, 3 days; for Relative hCD39 mRNA expression (compared to non-treated cells): second screening round, normalized to HPRT1; for Mean hCD39 mRNA expression normalized to HPRT1 relative to untreated control = 1: first screening round; for Residual hCD39 mRNA expression relative to untreated cells (set as 1): third screening round
Description: (§1) FIGS. 2A to 2D depict hCD39 mRNA knockdown efficacy of hCD39 antisense oligonucleotides in human cancer cell lines HDLM-2 (human Hodgkin Lymphoma) in a first and second screening round (FIGS. 2A-1 and 2A-2) and 2B-1 and 2B-2 and A-172 (human glioblastoma) in a first and second screening round (FIGS. 2C-1 and 2C-2) and 2D-1 and 2D-2. HDLM-2 and A-172 cells were treated for 3 days with 10 μM of the respective antisense oligonucleotide. As negative control, cells were treated with neg1, an antisense oligonucleotide having the sequence CGTTTAGGCTATGTACTT (SEQ ID NO:99) (described in WO2014154843 A1). Residual hCD39 mRNA expression relative to untreated cells is depicted. Expression values were normalized to expression of the housekeeping gene HPRT1. Depicted is the mean of triplicate wells+/−SD.
(§2) FIGS. 6A-6B depicts a third screening round where further antisense oligonucleotides were designed. These antisense oligonucleotides were based on efficient antisense oligonucleotides from the first and second screening round. Therefore, hCD39 antisense oligonucleotides were tested in human cancer cell lines HDLM-2 (human Hodgkin's lymphoma) (FIG. 6A) and A-172 (human glioblastoma) (FIG. 6B). HDLM-2 and A-172 cells were treated for 3 days with 10 μM of the respective antisense oligonucleotide. […] Residual hCD39 mRNA expression relative to untreated cells (set as 1) is depicted.
(§3) In order to analyze the efficacy of hCD39 antisense oligonucleotides of the present invention with regard to the knockdown of hCD39 mRNA expression in cancer cell lines, HDLM-2 (human Hodgkin Lymphoma, DSMZ) and A-172 (human glioblastoma, ATCC) cells were treated with a single dose (concentration: 10 μM without addition of any transfection reagent; this process is called gymnotic delivery) of the respective antisense oligonucleotide as shown in FIG. 2A to 2D. hCD39 and HPRT1 mRNA expression was analyzed three days later using the QuantiGene Singleplex assay (Affymetrix) and hCD39 expression values were normalized to HPRT1 values. […] Values of the mean normalized mRNA expression of hCD39 compared to non-treated cells are listed for A-172 (Table 4 for first screening round and Table 5 for second screening round) and HDLM-2 cells (Table 6 for first screening round and Table 7 for second screening round) in the following:
(§4) For a third screening round, new antisense oligonucleotides were designed. These antisense oligonucleotides were based on efficient antisense oligonucleotides from the first screening round with modifications in length, exact position on mRNA and chemical modification pattern. Therefore, hCD39 antisense oligonucleotides were tested in human cancer cell lines (FIG. 6A, Table 10) HDLM-2 (human Hodgkin's lymphoma) and (FIG. 6B, Table 11) A-172 (human glioblastoma). HDLM-2 and A-172 cells were treated for 3 days with 10 μM of the respective antisense oligonucleotide. […] Residual hCD39 mRNA expression relative to untreated cells (set as 1) is depicted.

hCD39 mRNA [2] = test: hCD39 mRNA knockdown efficacy screen in A-172 cells (single dose, gymnotic delivery, QuantiGene Singleplex); assay type: cell-based, human; conditions: 10 μM, 3 days; for Relative hCD39 mRNA expression (compared to non-treated cells): second screening round; for Relative hCD39 mRNA expression (compared to non-treated cells) / Mean hCD39 mRNA expression (relative to untreated cells set as 1): normalized to HPRT1; for Mean hCD39 mRNA expression (relative to untreated cells set as 1): first screening round; for Residual hCD39 mRNA expression relative to untreated cells (set as 1): third screening round
Description: as §1, §2, §3, §4

+C*+T*+C*C*A*G*C*G*T*A*A*G*+A*+T (antisense CTCCAGCGTAAGAT; sugars from the 5' end l3 d9 l2, all phosphorothioate, methylation of C not given here) [A04002H]
Relative hCD39 mRNA expression (compared to non-treated cells) (hCD39 mRNA [1]): 0.53 | Relative hCD39 mRNA expression (compared to non-treated cells) (hCD39 mRNA [2]): 0.96

+C*+T*+G*A*C*T*G*A*A*T*T*T*G*+C*+C*+C (antisense CTGACTGAATTTGCCC; sugars from the 5' end l3 d10 l3, all phosphorothioate, methylation of C not given here) [A04021H]
Mean hCD39 mRNA expression normalized to HPRT1 relative to untreated control = 1 (hCD39 mRNA [1]): 0.11 | Relative hCD39 mRNA expression (compared to non-treated cells) (hCD39 mRNA [1]): 0.11 | Mean hCD39 mRNA expression (relative to untreated cells set as 1) (hCD39 mRNA [2]): 0.16 | Relative hCD39 mRNA expression (compared to non-treated cells) (hCD39 mRNA [2]): 0.16

+C*C*T*A*C*C*C*A*G*G*A*T*A*G*+T*+C (antisense CCTACCCAGGATAGTC; sugars from the 5' end l1 d13 l2, all phosphorothioate, methylation of C not given here) [A04035H]
Mean hCD39 mRNA expression normalized to HPRT1 relative to untreated control = 1 (hCD39 mRNA [1]): 0.17 | Relative hCD39 mRNA expression (compared to non-treated cells) (hCD39 mRNA [1]): 0.18 | Relative hCD39 mRNA expression (compared to non-treated cells) (hCD39 mRNA [2]): 0.37

+C*T*+T*G*C*C*A*T*A*G*A*G*G*C*+G*A*+A (antisense CTTGCCATAGAGGCGAA; sugars from the 5' end ldldddddddddddldl, all phosphorothioate, methylation of C not given here) [A04041H]
Mean hCD39 mRNA expression normalized to HPRT1 relative to untreated control = 1 (hCD39 mRNA [1]): 0.18 | Relative hCD39 mRNA expression (compared to non-treated cells) (hCD39 mRNA [1]): * | Mean hCD39 mRNA expression (relative to untreated cells set as 1) (hCD39 mRNA [2]): 0.46 | Relative hCD39 mRNA expression (compared to non-treated cells) (hCD39 mRNA [2]): 0.24

+G*+A*+G*A*G*A*A*T*G*T*A*G*G*T*+A*C*+C (antisense GAGAGAATGTAGGTACC; sugars from the 5' end l3 d11 l1 d1 l1, all phosphorothioate, methylation of C not given here) [A04048H]
Mean hCD39 mRNA expression normalized to HPRT1 relative to untreated control = 1 (hCD39 mRNA [1]): 0.05 | Relative hCD39 mRNA expression (compared to non-treated cells) (hCD39 mRNA [1]): 0.36 | Mean hCD39 mRNA expression (relative to untreated cells set as 1) (hCD39 mRNA [2]): 0.09 | Relative hCD39 mRNA expression (compared to non-treated cells) (hCD39 mRNA [2]): 0.05

+G*+A*+G*G*C*G*A*A*A*T*T*G*C*A*+G*+A (antisense GAGGCGAAATTGCAGA; sugars from the 5' end l3 d11 l2, all phosphorothioate, methylation of C not given here) [A04024H]
Mean hCD39 mRNA expression normalized to HPRT1 relative to untreated control = 1 (hCD39 mRNA [1]): 0.15 | Relative hCD39 mRNA expression (compared to non-treated cells) (hCD39 mRNA [1]): 0.15 | Mean hCD39 mRNA expression (relative to untreated cells set as 1) (hCD39 mRNA [2]): 0.45 | Relative hCD39 mRNA expression (compared to non-treated cells) (hCD39 mRNA [2]): 0.45

+G*+A*C*T*A*T*G*C*T*G*A*A*C*+C*+A*+C (antisense GACTATGCTGAACCAC; sugars from the 5' end l2 d11 l3, all phosphorothioate, methylation of C not given here) [A04023H]
Mean hCD39 mRNA expression normalized to HPRT1 relative to untreated control = 1 (hCD39 mRNA [1]): 0.06 | Relative hCD39 mRNA expression (compared to non-treated cells) (hCD39 mRNA [1]): 0.06 | Mean hCD39 mRNA expression (relative to untreated cells set as 1) (hCD39 mRNA [2]): 0.09 | Relative hCD39 mRNA expression (compared to non-treated cells) (hCD39 mRNA [2]): 0.10

+G*+A*G*T*A*C*A*A*C*T*G*A*+A*+C*+C (antisense GAGTACAACTGAACC; sugars from the 5' end l2 d10 l3, all phosphorothioate, methylation of C not given here) [A04018H]
Mean hCD39 mRNA expression normalized to HPRT1 relative to untreated control = 1 (hCD39 mRNA [1]): 0.12 | Relative hCD39 mRNA expression (compared to non-treated cells) (hCD39 mRNA [1]): 0.12 | Mean hCD39 mRNA expression (relative to untreated cells set as 1) (hCD39 mRNA [2]): 0.19 | Relative hCD39 mRNA expression (compared to non-treated cells) (hCD39 mRNA [2]): 0.20

+G*+C*+C*C*C*A*A*A*A*T*C*C*C*C*+C*+T*+G (antisense GCCCCAAAATCCCCCTG; sugars from the 5' end l3 d11 l3, all phosphorothioate, methylation of C not given here) [A04047H]
Relative hCD39 mRNA expression (compared to non-treated cells) (hCD39 mRNA [1]): * | Relative hCD39 mRNA expression (compared to non-treated cells) (hCD39 mRNA [2]): 0.43

+G*+C*+C*C*T*G*A*T*G*T*T*T*G*+A*+A*+T (antisense GCCCTGATGTTTGAAT; sugars from the 5' end l3 d10 l3, all phosphorothioate, methylation of C not given here) [A04054H]
Residual hCD39 mRNA expression relative to untreated cells (set as 1) (hCD39 mRNA [1]): 0.13 | Residual hCD39 mRNA expression relative to untreated cells (set as 1) (hCD39 mRNA [2]): 0.60

+G*+C*+C*T*T*G*A*A*C*A*C*T*G*C*+G*+A (antisense GCCTTGAACACTGCGA; sugars from the 5' end l3 d11 l2, all phosphorothioate, methylation of C not given here) [A04032H]
Mean hCD39 mRNA expression normalized to HPRT1 relative to untreated control = 1 (hCD39 mRNA [1]): 0.06 | Relative hCD39 mRNA expression (compared to non-treated cells) (hCD39 mRNA [1]): 0.01 | Mean hCD39 mRNA expression (relative to untreated cells set as 1) (hCD39 mRNA [2]): 0.19 | Relative hCD39 mRNA expression (compared to non-treated cells) (hCD39 mRNA [2]): 0.10

+G*+C*C*A*T*A*G*G*C*A*C*C*+T*+T*+C (antisense GCCATAGGCACCTTC; sugars from the 5' end l2 d10 l3, all phosphorothioate, methylation of C not given here) [A04004H]
Mean hCD39 mRNA expression normalized to HPRT1 relative to untreated control = 1 (hCD39 mRNA [1]): 0.22 | Relative hCD39 mRNA expression (compared to non-treated cells) (hCD39 mRNA [1]): 0.21 | Mean hCD39 mRNA expression (relative to untreated cells set as 1) (hCD39 mRNA [2]): 0.65 | Relative hCD39 mRNA expression (compared to non-treated cells) (hCD39 mRNA [2]): 0.66

+G*+G*+A*C*A*A*T*G*G*T*T*G*C*+T*C*+A (antisense GGACAATGGTTGCTCA; sugars from the 5' end l3 d10 l1 d1 l1, all phosphorothioate, methylation of C not given here) [A04030H]
Mean hCD39 mRNA expression normalized to HPRT1 relative to untreated control = 1 (hCD39 mRNA [1]): 0.07 | Relative hCD39 mRNA expression (compared to non-treated cells) (hCD39 mRNA [1]): 0.38 | Mean hCD39 mRNA expression (relative to untreated cells set as 1) (hCD39 mRNA [2]): 0.19 | Relative hCD39 mRNA expression (compared to non-treated cells) (hCD39 mRNA [2]): 0.10

+G*+G*+C*G*A*A*A*T*T*G*C*+A*+G*+A (antisense GGCGAAATTGCAGA; sugars from the 5' end l3 d8 l3, all phosphorothioate, methylation of C not given here) [A04001H]
Mean hCD39 mRNA expression normalized to HPRT1 relative to untreated control = 1 (hCD39 mRNA [1]): 0.25 | Relative hCD39 mRNA expression (compared to non-treated cells) (hCD39 mRNA [1]): 0.25 | Mean hCD39 mRNA expression (relative to untreated cells set as 1) (hCD39 mRNA [2]): 0.58 | Relative hCD39 mRNA expression (compared to non-treated cells) (hCD39 mRNA [2]): 0.58

+G*G*+T*T*T*G*T*G*T*G*A*G*+A*G*+C (antisense GGTTTGTGTGAGAGC; sugars from the 5' end ldldddddddddldl, all phosphorothioate, methylation of C not given here) [A04062H]
Residual hCD39 mRNA expression relative to untreated cells (set as 1) (hCD39 mRNA [1]): 0.01 | Residual hCD39 mRNA expression relative to untreated cells (set as 1) (hCD39 mRNA [2]): 0.17

+G*T*+C*A*A*T*C*C*T*G*C*T*C*A*+A*+C (antisense GTCAATCCTGCTCAAC; sugars from the 5' end l1 d1 l1 d11 l2, all phosphorothioate, methylation of C not given here) [A04038H]
Mean hCD39 mRNA expression normalized to HPRT1 relative to untreated control = 1 (hCD39 mRNA [1]): 0.20 | Relative hCD39 mRNA expression (compared to non-treated cells) (hCD39 mRNA [1]): * | Mean hCD39 mRNA expression (relative to untreated cells set as 1) (hCD39 mRNA [2]): 0.56 | Relative hCD39 mRNA expression (compared to non-treated cells) (hCD39 mRNA [2]): 0.29

+T*+A*+C*T*C*C*A*G*C*G*T*A*A*+G*+A*+T (antisense TACTCCAGCGTAAGAT; sugars from the 5' end l3 d10 l3, all phosphorothioate, methylation of C not given here) [A04027H]
Mean hCD39 mRNA expression normalized to HPRT1 relative to untreated control = 1 (hCD39 mRNA [1]): 0.24 | Relative hCD39 mRNA expression (compared to non-treated cells) (hCD39 mRNA [1]): 0.24 | Mean hCD39 mRNA expression (relative to untreated cells set as 1) (hCD39 mRNA [2]): 0.58 | Relative hCD39 mRNA expression (compared to non-treated cells) (hCD39 mRNA [2]): 0.58
